Laboratory results reported in US4279915A, “Method of treatment using new leurosine derivatives” (priority 1973, dated 1981).

Experiments:
lymphomas = experiment: effect of F-leurosine on lymphomas in patients (Table II); type: in vivo, human
Source text: Both of Hodgkin patients belonged to the poor risk category.
EFFECT OF F-LEUROSINE ON LYMPHOMAS

L 1210 leukemia = experiment: effect on L 1210 i.p. leukemia; type: in vivo, BDF1 mice
Source text: The treatment extends the life span of animals suffering from L-1210 lymphoid leukemia, s37 ascites sarcoma or Yoshida ascites sarcoma by about 150 to 250 percent.
L 1210 I.P. LEUKEMIA ON BDF1 MICE

[1] = tested on: haemoblastoses and leukemia; experiment: clinical treatment of patients with haemoblastoses and leukemia (Example A); type: in vivo, human
Procedure: Based on the experiences obtained on 17 patients during the first half-year, further 8 patients with haemoblastoses and leukemia were given treatment. The patients were given daily 0.05 mg/kg single doses. The clinical examinations during the second half-year were performed with the same daily dose, but with different total doses. The smallest total amount meant 3, the highest 12 subsequent doses. The dosage was tested both in forms of sequential and intermittent treatment.
3 patients out of 8 received the drug sequentially, which meant single doses on subsequent days, the remaining 5 patients were given intermittent treatment.
The intermittent treatment was made in two ways: 1. Single doses through 3 days, followed by 5 days interval as total up to an amount of 12 times 0.05 mg/kg. 2. Single dose on the first day, followed by 3 days interval, up to a total amount of 12 times 0.05 mg/kg.
The route of administration was always intravenous, 1 mg active substance was dissolved in 10 ml physiological saline.

[2] = 8 × 2.5 mg/kg i.p. 48 hr interval
[3] = 8 × 2.5 mg/kg i.p. 72 hr interval
[4] = 8 × 5.0 mg/kg i.p. 48 hr interval
[5] = 8 × 5.0 mg/kg i.p. 72 hr interval
[6] = 8 × 5.0 mg/kg i.p. 96 hr interval
[7] = 8 × 7.5 mg/kg i.p. 72 hr interval
[8] = 8 × 7.5 mg/kg i.p. 96 hr interval
[9] = 8 × 10.0 mg/kg i.p. 48 hr interval
[10] = 8 × 10.0 mg/kg i.p. 72 hr interval
[11] = 8 × 10.0 mg/kg i.p. 96 hr interval
[12] = 0.05 mg/kg daily dose, applied 3-12 times

Question: Which results are given for CCC12CN3CCc4c([nH]c5ccccc45)[C@@](C(=O)OC)(c4cc5c(cc4OC)N(C=O)[C@H]4[C@@](O)(C(=O)OC)[C@H](OC(C)=O)[C@]6(CC)C=CCN7CC[C@]54[C@@H]76)C[C@@H](C3)C1O2 (stereo partly drawn) [N-formyl-leurosine]?
Answer: X-ray picture of the chest, atelectasia in lower region of right lung (lymphomas; Hodgkin patient four, before vs after treatment): undoubted improvement; response (lymphomas; lymphosarcoma patient eight, poor risk): non-responding; palpable lymph nodes (lymphomas; lymphosarcoma patient five, after second course): all but one of the palpable lymph nodes disappeared; Westergren value after treatment (lymphomas; lymphosarcoma patient five, 75 mm/hour before the treatment): 12 mm/h; remission (lymphomas; lymphosarcoma patient three): moderate remission; change in mediastinal pathologic lymph nodes' size and intensity (lymphomas; lymphosarcoma patient two): not spectacular, but definite; palpable lymph nodes (lymphomas; lymphosarcoma patient two): The majority of their palpable lymph nodes disappeared; effect (lymphomas; patient five, course I, Lysc., schedule A): IR>50%; effect (lymphomas; patient five, course II, Lysc., schedule B): IR<50%; effect (lymphomas; patient nine, Hodgkin SC., schedule C): IR<50%; effect (lymphomas; patient one, Rsc., schedule C): IR<50%; effect (lymphomas; patient three, Lysc., schedule A): IR<50%; effect (lymphomas; patient two, Lysc., schedule C): IR>50%; sensitivity to treatment (lymphomas; poor risk Hodgkin patient four): proved to be sensitive; improvement after therapy (lymphomas; two reticulosarcoma patients, some lymph nodes diminished, softer, more mobile): one showed a moderate improvement after therapy; Mean survival (L 1210 leukemia; 8 × 1.25 mg/kg i.p. daily): 27.7 days; Survival (L 1210 leukemia; 8 × 1.25 mg/kg i.p. daily): 131; Mean survival (L 1210 leukemia; [2]): 22.4 days; Survival (L 1210 leukemia; [2]): 137; Mean survival (L 1210 leukemia; [3]): 12.0 days; Survival (L 1210 leukemia; [3]): 48; Mean survival (L 1210 leukemia; 8 × 2.5 mg/kg i.p. daily): 25.0 days; Survival (L 1210 leukemia; 8 × 2.5 mg/kg i.p. daily): 127; Mean survival (L 1210 leukemia; [4]): 24.0 days; Survival (L 1210 leukemia; [4]): 126; Mean survival (L 1210 leukemia; [5]): 22.1 days; Survival (L 1210 leukemia; [5]): 123; Mean survival (L 1210 leukemia; [6]): 10.8 days; Survival (L 1210 leukemia; [6]): 35; Mean survival (L 1210 leukemia; 8 × 5.0 mg/kg i.p. daily): 23.0 days; Survival (L 1210 leukemia; 8 × 5.0 mg/kg i.p. daily): 109; Mean survival (L 1210 leukemia; [7]): 20.2 days; Survival (L 1210 leukemia; [7]): 117; Mean survival (L 1210 leukemia; [8]): 19.2 days; Survival (L 1210 leukemia; [8]): 95; Mean survival (L 1210 leukemia; 8 × 7.5 mg/kg i.p. daily): 19.5 days; toxicity mark in Survival column (L 1210 leukemia; 8 × 7.5 mg/kg i.p. daily): tox; Survival (L 1210 leukemia; 8 × 7.5 mg/kg i.p. daily, tox): 56; Mean survival (L 1210 leukemia; [9]): 21.7 days; toxicity mark in Survival column (L 1210 leukemia; [9]): tox; Survival (L 1210 leukemia; 8 × 10.0 mg/kg i.p. 48 hr interval, tox): 60; Mean survival (L 1210 leukemia; [10]): 22.3 days; Survival (L 1210 leukemia; [10]): 145; Mean survival (L 1210 leukemia; [11]): 23.6 days; Survival (L 1210 leukemia; [11]): 136; potency of small daily doses vs high doses twice weekly (L 1210 leukemia; BDF1 mice): equally potent; sensitivity of L-1210 leukemia to the treatment (L 1210 leukemia; BDF1 mice): sensitive to the treatment; extension of life span (L 1210 leukemia; L-1210 lymphoid leukemia, about): 150-250%; side effects [1, 12]: does not produce any side effects; untoward neurological symptoms [1, 12]: No untoward symptoms of a neurological respect appear; objective improvement ([1]; 0.05 mg/kg daily i.v., complete treatments): all complete treatments were followed by objective improvement; Complete remission ([1]; 0.05 mg/kg daily i.v., leukemic patients): both leukemic patients had complete remission; effectiveness in acute leukemia and lymphomas ([1]; phase I examinations, acute leukemia (myeloblast and lymphoblast type) and lymphomas): equally effective in acute leukemia (myeloblast and lymphoblast type), and in lymphomas; cytostatic effect ([1]; summary): very effective cytostatic
